Data from US8592374B2, “Neurotrophic peptides” (Research Foundation for Mental Hygiene, Inc., priority 2007, dated 2013).
Entries after “also recorded” stand apart in the source; their conditions may differ. Peptide text beside a SMILES is read from it. * marks the point of attachment. Adamantane1carbonyl = O=C(C12CC3CC(CC(C3)C1)C2)*; X1 = NC(=O)C12CC3CC(CC(N*)(C3)C1)C2

How the values were obtained:
[1] = General examination (physical state, body weight, exploratory activity, swim speed, floating); assay type: in vivo, mice; settings: 25 nmol/day for 35 days
Protocol: All in vivo studies for characterization of compounds (stereology and behavioral analysis) were performed on 8-10-month-old female retired breeders of C57Bl6 background. Animals were acclimatized for at least 3 weeks to exclude occasional pregnant mice from the studies. Mice were group-housed (3 animals per cage) with a 12:12 hours light/dark cycle and with free access to food and water.
(§1) For the compound treatment, mice (8 animals/group) received subcutaneous implants of extended release depot pellets containing P21 or P22 at 25 nmol/day for 35 days of continuous dosing (Innovative Research of America, USA). For the control group (8 animals), pellets consisted of the carrier polymer only. Mice were anesthetized with 2.5% Avertin (0.38 ml for a 25 g animal). Under sterile conditions, pellets were implanted subcutaneously along the anterolateral aspect of the right shoulder with a precision trochar (Innovative Research of America). After recovery of anesthesia, animals were transferred to the animal colony. No complications associated with the implantation and treatment were observed. All procedures on animals were conducted in accordance with approved protocols from our Institutional Animal Welfare Committee.
The physical state and condition of animals were carefully monitored throughout the treatment by evaluating grooming, physical state and clasping reflex. Body weight was also recorded.
The test used was an adaptation of the procedure previously described by Sargolini and collaborators (Sargolini, F., et al. Behav Brain Res 138 (2003):153-63). The testing apparatus was a classic open field (i.e. a PVC square arena, 50×50 cm, with walls 40 cm high). The open field was placed in a part of the room separated from the experimentator with a black opaque curtain. The open field was surmounted by a video camera connected to a computer. Three objects were employed in this task. The general procedure consisted of three different phases: a familiarization phase (1 session of 20 min), a sample phase, and a test phase. On the first days, mice were individually submitted to the familiarization session during which they were introduced in the empty arena in order to become familiar with the apparatus. This familiarization session allowed to record a baseline level of locomotor activity (measuring the distance covered in the open field) and of anxiety (measuring the time the animals spent in the centre of the arena during the first five minutes). On the second day each mouse was first submitted to the sample phase (session 1, ten minutes) for which two identical objects were placed in a symmetric position from the centre of the arena. After a 15 minute delay during which the mouse returned to its home cage, it was reintroduced in the arena to perform the test phase (session 2, 10 min). The mouse was then exposed to two objects: a familiar object (previously presented during the sample phase) and a new object, placed at the same location as during the sample phase. Data collection was performed using a video tracking system (Smart version 2.0.14 software, Pan Lab/San Diego Instruments). Object discrimination was calculated as follows: OD=(time spent close to new object)/(time spent close to new object)+(time spent close to old object)×100

[2] = test system: normal adult mice; assay: Open field, time in the centre of the arena (anxiety); assay type: in vivo; settings: 25 nmol/day, first five minutes of familiarization session
Protocol: as §1
(§2) The test used was an adaptation of the procedure previously described by Sargolini and collaborators (Sargolini, F., et al. Behav Brain Res 138 (2003):153-63). The testing apparatus was a classic open field (i.e. a PVC square arena, 50×50 cm, with walls 40 cm high). The open field was placed in a part of the room separated from the experimentator with a black opaque curtain. […] Object discrimination was calculated as follows: OD=(time spent close to new object)/(time spent close to new object)+(time spent close to old object)×100

[3] = test system: normal adult mice; assay: One-trial object recognition test; assay type: in vivo; settings: 25 nmol/day, test phase after 15 minute delay
Protocol: as §1
In the one-trial object recognition task, animals are exposed to two different objects which they have to identify as novel or familiar based on the memory of an earlier experience with one of the two objects they encountered in the same open field. The familiar object is explored shorter than the novel encountered one because the representation of the former is still available in memory. The one-trial object recognition task tests some aspects of episodic memory but is limited to memory of an object (what), the location of an object (where), and the context in which it was encountered (which). However, the temporal dimension of the episode remains inaccessible to the experimentator, and because of this reason this task in animals is considered a test of short term memory.
as §2, with “high).” for “high). The open field was placed in a part of the room separated from the experimentator with a black opaque curtain.”

[4] = test system: normal adult mice; assay: Spatial reference memory task in the water maze; assay type: in vivo
Protocol: as §1
Spatial reference learning and memory were evaluated in the water maze using a procedure adapted from that previously described by Morris et al. (Morris, R. G., et al. Nature 297 (1982): 681-3). The test required that mice used a spatial navigational strategy based on a spatial representation of the environment to find a fixed submerged escape platform. The procedure was performed in a 180 cm diameter circular tank. The pool was filled with water (21±1° C.) made opaque by adding white non-toxic paint. Acquisition started with the escape platform (15 cm diameter submerged 1 cm below water surface) in the Northwest quadrant and each animal was given 90 s to find the platform. […] At the end of each trial, the mouse was left on the platform for 20 seconds, then dried and returned to its home cage until the next trial. Five such acquisition trials were given on each day for four consecutive days. A test for retention, or probe trial (PT), was given 24 hours later. During the probe trial the mouse was allowed to swim in the tank without the escape platform for 60 seconds. This was followed by second and third probe trials 15 and 30 days after the first probe trial.
The measures of learning were the time and distance covered to reach the escape platform. For the probe trial, the tank was divided into four imaginary quadrants and a small zone where the escape platform had been. The measure of retention was calculated as the ratio of time spent or distance covered in target quadrant over that in the three other quadrants.
Mouse behavior in the water maze was monitored by a Samsung Digital Camera (SDC 4304) mounted to the ceiling and tracked and timed by a SMART (Pan Lab/San Diego Instruments) version 2.0.14 software.

[5] = test system: adult hippocampal progenitors in the dentate gyrus; assay: Neurogenesis in the DG (BrdU-positive and BrdU/NeuN-double-positive cells); assay type: in vivo, mice; settings: 25 nmol/day for 35 days
Protocol: as §1
To investigate neurogenesis, BrdU (Sigma, USA) was given as two daily i.p. injections (100 mg/kg/dose) for five days starting on day 2 of compounds treatment.
At the end of the behavioral experiment, animals were anesthetized with an overdose of sodium pentobarbital (120 mg/kg) and transcardially perfused with 0.1 M phosphate buffered saline (PBS). After perfusion, the brains were removed from the skull, the left hemisphere was immediately frozen for future biochemical analysis and the right hemisphere was immersion fixed in 4% paraformaldehyde in 0.1 M PBS for at least 24 hours at room temperature. Tissues were equilibrated and stored in 30% sucrose solution at 4° C. until sectioning. The brains were sectioned sagittaly on a freezing sliding microtome at 40 μm through the entire hippocampus and the sections were stored in glycol anti-freeze solution (Ethylene glycol, glycerol and 0.1 M PBS in 3:3:4 ratio) at −20° C. until further processing.
For double labeling of BrdU and NeuN, brain sections were pretreated with 2 M HCl at 37° C. for 30 min and neutralized with 0.1 M borate buffer (pH 8.5) for 10 minutes. […]
Neurogenesis in the dentate gyrus was evaluated by counting the number of BrdU-positive and BrdU/NeuN-double-positive cells in the dentate gyrus (DG). The number of positive cells was determined in every fifth section in a series of 40 μm sagittal sections throughout the DG using unbiased sterology. All BrdU-positive cells in the subgranular zone (SGZ) and granule cell layer (GCL) were counted using a fluorescent microscope (Nikon Eclipse 90i, Nikon Corporation, Japan). Double labeled cells were assessed by a confocal imaging system (D-Eclipse C1, Nikon Corporation). […] For each brain, at least 100 cells were counted based on coefficient of error determinations.

[6] = General examination (physical state, body weight, exploratory activity, swim speed, floating); assay type: in vivo, mice; settings: 25 nmol/day for 35 days; remark: listed apart in the source
[7] = test system: AHPs; assay: Cell-based assay for differentiation of AHPs with CNTF (βIII-tubulin/DAPI); settings: 1 hr fixation
Protocol: βIII-tubulin antigenicity is compromised by fixation, although longer fixation improves attachment to the plates. Therefore, plates with different coatings for their suitability to be used in differentiation assay using CNTF (0.1, 1, 10, 100 ng/ml) were tested. Coating matrices tested: • poly D-lysine • poly D-lysine/laminin • poly L-ornithine/laminin • polyethyleneimine • collagen I • fibronectin The best immunostaining for βIII-tubulin was with 10 min fixation. However, since less cells were lost with 1 hr fixation, the differentiation assay with CNTF was performed with 1 hr fixation. The best differentiation was achieved on polyethyleneimine coated plates using the ratio of βIII-tubulin immunostaining to DAPI nuclear staining (cell number) as % of control as a relative measure of differentiation.

[8] = cited from earlier work
[9] = test system: embryonic chick ciliary neurons; settings: embryonic chick ciliary neurons in culture; cited from earlier work
[10] = biological target: T1, human CNTF receptor (Homo sapiens, UniProt P26992); settings: cited from earlier work
T1 sequence (P26992 23-342): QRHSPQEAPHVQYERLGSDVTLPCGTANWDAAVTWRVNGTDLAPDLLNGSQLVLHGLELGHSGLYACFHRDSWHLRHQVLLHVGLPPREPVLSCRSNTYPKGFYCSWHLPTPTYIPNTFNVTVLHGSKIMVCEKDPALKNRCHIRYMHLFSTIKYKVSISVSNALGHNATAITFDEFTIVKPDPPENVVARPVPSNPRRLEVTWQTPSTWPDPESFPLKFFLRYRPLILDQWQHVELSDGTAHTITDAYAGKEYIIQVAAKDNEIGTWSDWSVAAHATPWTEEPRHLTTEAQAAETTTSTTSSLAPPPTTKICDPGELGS

CC(C)C[C@H](NC(=O)CNC(=O)CNC(=O)[C@H](CC(=O)O)NC(=O)C12CC3CC(CC(C3)C1)C2)C(=O)NC12CC3CC(C1)CC(C(N)=O)(C3)C2 [Peptide P22, 1-AdCO-DGGL^AG-NH2] (Adamantane1carbonyl-DGGL-X1)
exploratory behavior / exploratory activity ([1]; open field): no alteration; also recorded: did not induce any effect
body weight ([1]; subcutaneous pellets): no alteration; also recorded: did not induce any effect
general physical state ([1]; subcutaneous pellets): no alteration
level of anxiety (time in the center of the open field) [2]: spent more time in the center of the open field than control animals; also recorded: reduced anxiety level
time exploring the new object versus the familiar object [3]: did not preferentially explore the novel object
effect in the probe trials ([4]; three probe trials): No statistically significant effect
escape latencies to reach the submerged platform (learning) ([4]; training day 2 to 4, compared to control group): significantly reduced; also recorded: increased performance in the learning of spatial memory task
BrdU positive cells in the DG (GCL and SGZ) [5]: No significant alteration in neurogenesis
BrdU/NeuN positive cells in the DG (GCL) [5]: No significant changes
floating behavior in the water maze task (sign of depression or locomotor impairment) [6]: no floating behavior was observed
swim speed ([6]; water maze): no alteration; also recorded: did not induce any effect

B1: CNTF: Ciliary neurotrophic factor, a survival factor for various neuronal cell types; 200 amino acid protein (protein, UniProt P26441 1-200, looked up)
chain: MAFTEHSPLTPHRRDLCSRSIWLARKIRSDLTALTESYVKHQGLNKNINLDSADGMPVASTDQWSELTEAERLQENLQAYRTFHVLLARLLEDQQVHFTPTEGDFHQAIHTLLLQVAAFAYQIEELMILLEYKIPRNEADGMPINVGDGGLFEKKLWGLKVLQELSQWTVRSIHDLRFISSHQTGIPARGSHYIANNKKM
modifications: full-length
notes: Ciliary neurotrophic factor, a survival factor for various neuronal cell types; 200 amino acid protein
βIII-tu/DAPI (% of Control) (100 ng/ml CNTF) ([7]; coating poly D-lysine): 175 % of Control
βIII-tu/DAPI (% of Control) (100 ng/ml CNTF) ([7]; coating poly D-lysine/laminin): 240 % of Control
βIII-tu/DAPI (% of Control) (100 ng/ml CNTF) ([7]; coating poly L-ornithine/laminin): 330 % of Control
βIII-tu/DAPI (% of Control) (100 ng/ml CNTF) ([7]; coating poly ethyleneimine): 480 % of Control
side effects of administration in human clinical trials [8]: anorexia, skeletal muscle loss, hyperalgesia, cramps, and muscle pain

B2: recombinant rat CNTF: recombinant rat ciliary neurotrophic factor (protein, UniProt P20294 1-200, looked up)
Ciliary neurotrophic factor: MAFAEQTPLTLHRRDLCSRSIWLARKIRSDLTALMESYVKHQGLNKNINLDSVDGVPVASTDRWSEMTEAERLQENLQAYRTFQGMLTKLLEDQRVHFTPTEGDFHQAIHTLMLQVSAFAYQLEELMVLLEQKIPENEADGMPATVGDGGLFEKKLWGLKVLQELSQWTVRSIHDLRVISSHQMGISALESHYGAKDKQM
biological activity in supporting survival and neurite outgrowth, relative to recombinant human CNTF [9]: four times better
affinity for the human CNTF receptor relative to human CNTF [10]: higher affinity
